Data reported in paper PMC12198282, “Application of a high-density microelectrode array assay using a 3D human iPSC-derived brain microphysiological system model for in vitro neurotoxicity screening of environmental compounds” (Archives of Toxicology, 2025).
pEC50: −log10 of the molar value. Like-named read-outs stand apart in the source and are kept apart here.

Legend:
2D rat cortical cultures [1] = settings: cited from earlier work; for AC50: rNFA mc5
2D rat cortical cultures [2] = settings: rNFA mc5 hit call; cytotoxicity LDH; cited from earlier work
[3] = system: human iPSC-derived 3D BrainSpheres; test: BrainSphere MEA assay (HD-MEA, 13-day exposure, concentration-response); type: cell-based; settings: for EC (benchmark response 1.349 SD): 312 h; for AC50: concentration at 50% maximal activity, Supplement 3 prints it also for curves with hit call 0; on hitc Mean.Spheroid.Burst.Duration: key: 1 (active); 0 (inactive); on hitc Mean.Spheroid.Burst.ISI: key: 1 (active); 0 (inactive); on hitc Mean.Spheroid.Burst.Peak.Firing.Rate: key: 1 (active); 0 (inactive); on hitc Mean.Spheroid.Firing.Rate: key: 1 (active); 0 (inactive); on hitc Mean.Spheroid.IBI: key: 1 (active); 0 (inactive); on hitc Mean.Spheroid.Nonburst.ISI: key: 1 (active); 0 (inactive); on hitc Mean.Spheroid.Spikes.per.Burst.per.Electrode: key: 1 (active); 0 (inactive); on hitc Mean.Spheroid.Spikes.per.Burst: key: 1 (active); 0 (inactive); on hitc Spheroid.Burst.Frequency: key: 1 (active); 0 (inactive); on hitc Spheroid.Spike.Amplitude.90th.Percentile: key: 1 (active); 0 (inactive)
Summary of the method: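 Recordings used a 5× RMS spike threshold and 600 s network scans of fixed electrode regions, each region clustered as one BrainSphere. Spheres had 7 weeks of differentiation and 48 h attachment on coated HD-MEA chips before day 0 of the 13-day concentration-response exposure. At least three independent plates were run.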

[4] = system: co-culture of iPSC-derived excitatory and inhibitory neurons, and primary human astrocytes; set-up: method as in Bartmann et al. [2023]; settings: ref Bartmann et al. [2023], cited from earlier work
[5] = AUC over 13-day exposure, tcplfit2
[6] = tcplfit2 BMD at benchmark response (1.349*SD of baseline controls)
[7] = tcplfit2 output ACC, activity cutoff in Supplemental Table 1
Wherever hitc CCTE Shafer MEA dev active electrodes number is given: key: 1 (active); 0 (inactive).
Wherever hitc CCTE Shafer MEA dev burst duration mean is given: key: 1 (active); 0 (inactive).
Wherever hitc CCTE Shafer MEA dev burst rate is given: key: 1 (active); 0 (inactive).
Wherever hitc CCTE Shafer MEA dev bursting electrodes number is given: key: 1 (active); 0 (inactive).
Wherever hitc CCTE Shafer MEA dev correlation coefficient mean is given: key: 1 (active); 0 (inactive).
Wherever hitc CCTE Shafer MEA dev firing rate mean is given: key: 1 (active); 0 (inactive).
Wherever hitc CCTE Shafer MEA dev inter network spike interval mean is given: key: 1 (active); 0 (inactive).
Wherever hitc CCTE Shafer MEA dev interburst interval mean is given: key: 1 (active); 0 (inactive).
Wherever hitc CCTE Shafer MEA dev mutual information norm is given: key: 1 (active); 0 (inactive).
Wherever hitc CCTE Shafer MEA dev network spike duration std is given: key: 1 (active); 0 (inactive).
Wherever hitc CCTE Shafer MEA dev network spike number is given: key: 1 (active); 0 (inactive).
Wherever hitc CCTE Shafer MEA dev network spike peak is given: key: 1 (active); 0 (inactive).
Wherever hitc CCTE Shafer MEA dev per burst interspike interval is given: key: 1 (active); 0 (inactive).
Wherever hitc CCTE Shafer MEA dev per burst spike percent is given: key: 1 (active); 0 (inactive).
Wherever hitc CCTE Shafer MEA dev per network spike spike number mean is given: key: 1 (active); 0 (inactive).
Wherever hitc CCTE Shafer MEA dev per network spike spike percent is given: key: 1 (active); 0 (inactive).
Wherever hitc CCTE Shafer MEA dev spike duration mean is given: key: 1 (active); 0 (inactive).

CC1(C)[C@H](C(=O)O[C@H](C#N)c2cccc(Oc3ccccc3)c2)[C@@H]1C=C(Br)Br [Deltamethrin]
AC50 (2D rat cortical cultures [1]; aenm active_electrodes_number, read-out: ac50 CCTE_Shafer_MEA_dev_active_electrodes_number): 8.89 µM | AC50 (2D rat cortical cultures [1]; aenm burst_duration_mean, read-out: ac50 CCTE_Shafer_MEA_dev_burst_duration_mean): 5.29 µM | AC50 (2D rat cortical cultures [1]; aenm burst_rate, read-out: ac50 CCTE_Shafer_MEA_dev_burst_rate): 3.87 µM | AC50 (2D rat cortical cultures [1]; aenm bursting_electrodes_number, read-out: ac50 CCTE_Shafer_MEA_dev_bursting_electrodes_number): 3.71 µM | AC50 (2D rat cortical cultures [1]; aenm correlation_coefficient_mean, read-out: ac50 CCTE_Shafer_MEA_dev_correlation_coefficient_mean): 2.04 µM | AC50 (2D rat cortical cultures [1]; aenm firing_rate_mean, read-out: ac50 CCTE_Shafer_MEA_dev_firing_rate_mean): 3.1 µM | AC50 (2D rat cortical cultures [1]; aenm mutual_information_norm, read-out: ac50 CCTE_Shafer_MEA_dev_mutual_information_norm): 0.641 µM | AC50 (2D rat cortical cultures [1]; aenm network_spike_duration_std, read-out: ac50 CCTE_Shafer_MEA_dev_network_spike_duration_std): 3.82 µM | AC50 (2D rat cortical cultures [1]; aenm network_spike_number, read-out: ac50 CCTE_Shafer_MEA_dev_network_spike_number): 0.853 µM | AC50 (2D rat cortical cultures [1]; aenm network_spike_peak, read-out: ac50 CCTE_Shafer_MEA_dev_network_spike_peak): 7.54 µM | AC50 (2D rat cortical cultures [1]; aenm per_burst_interspike_interval, read-out: ac50 CCTE_Shafer_MEA_dev_per_burst_interspike_interval): 15 µM | AC50 (2D rat cortical cultures [1]; aenm per_burst_spike_percent, read-out: ac50 CCTE_Shafer_MEA_dev_per_burst_spike_percent): 7.16 µM | AC50 (2D rat cortical cultures [1]; aenm per_network_spike_spike_number_mean, read-out: ac50 CCTE_Shafer_MEA_dev_per_network_spike_spike_number_mean): 3.96 µM | AC50 (2D rat cortical cultures [1]; aenm per_network_spike_spike_percent, read-out: ac50 CCTE_Shafer_MEA_dev_per_network_spike_spike_percent): 1.8 µM | AC50 (2D rat cortical cultures [1]; aenm spike_duration_mean, read-out: ac50 CCTE_Shafer_MEA_dev_spike_duration_mean): 6.4 µM | hitc CCTE_Shafer_MEA_dev_active_electrodes_number (2D rat cortical cultures [1]; rNFA mc5 hit call, aenm active_electrodes_number): 1 | hitc CCTE_Shafer_MEA_dev_burst_duration_mean (2D rat cortical cultures [1]; rNFA mc5 hit call, aenm burst_duration_mean): 1 | hitc CCTE_Shafer_MEA_dev_burst_rate (2D rat cortical cultures [1]; rNFA mc5 hit call, aenm burst_rate): 1 | hitc CCTE_Shafer_MEA_dev_bursting_electrodes_number (2D rat cortical cultures [1]; rNFA mc5 hit call, aenm bursting_electrodes_number): 1 | hitc CCTE_Shafer_MEA_dev_correlation_coefficient_mean (2D rat cortical cultures [1]; rNFA mc5 hit call, aenm correlation_coefficient_mean): 1 | hitc CCTE_Shafer_MEA_dev_firing_rate_mean (2D rat cortical cultures [1]; rNFA mc5 hit call, aenm firing_rate_mean): 1 | hitc CCTE_Shafer_MEA_dev_inter_network_spike_interval_mean (2D rat cortical cultures [1]; rNFA mc5 hit call, aenm inter_network_spike_interval_mean): 0 | hitc CCTE_Shafer_MEA_dev_interburst_interval_mean (2D rat cortical cultures [1]; rNFA mc5 hit call, aenm interburst_interval_mean): 0 | hitc CCTE_Shafer_MEA_dev_mutual_information_norm (2D rat cortical cultures [1]; rNFA mc5 hit call, aenm mutual_information_norm): 1 | hitc CCTE_Shafer_MEA_dev_network_spike_duration_std (2D rat cortical cultures [1]; rNFA mc5 hit call, aenm network_spike_duration_std): 1 | hitc CCTE_Shafer_MEA_dev_network_spike_number (2D rat cortical cultures [1]; rNFA mc5 hit call, aenm network_spike_number): 1 | hitc CCTE_Shafer_MEA_dev_network_spike_peak (2D rat cortical cultures [1]; rNFA mc5 hit call, aenm network_spike_peak): 1 | hitc CCTE_Shafer_MEA_dev_per_burst_interspike_interval (2D rat cortical cultures [1]; rNFA mc5 hit call, aenm per_burst_interspike_interval): 1 | hitc CCTE_Shafer_MEA_dev_per_burst_spike_percent (2D rat cortical cultures [1]; rNFA mc5 hit call, aenm per_burst_spike_percent): 1 | hitc CCTE_Shafer_MEA_dev_per_network_spike_spike_number_mean (2D rat cortical cultures [1]; rNFA mc5 hit call, aenm per_network_spike_spike_number_mean): 1 | hitc CCTE_Shafer_MEA_dev_per_network_spike_spike_percent (2D rat cortical cultures [1]; rNFA mc5 hit call, aenm per_network_spike_spike_percent): 1 | hitc CCTE_Shafer_MEA_dev_spike_duration_mean (2D rat cortical cultures [1]; rNFA mc5 hit call, aenm spike_duration_mean): 1 | hitc CCTE_Shafer_MEA_dev_LDH (2D rat cortical cultures [2]): 0 | pEC50 ([3]; 5th percentile across active AC50 values per chemical, read-out: Minimum potency): 5.80 | Difference of minimum potency between BrainSphere MEA assay and rNFA ([3]; 5th percentile of AC50 values by chemical, above 0.5 = more potent in the rNFA): ≤ 0.5 log10 µM | hitc Mean.Spheroid.Burst.Duration [3, 5]: 1 | hitc Mean.Spheroid.Burst.ISI [3, 5]: 1 | hitc Mean.Spheroid.Burst.Peak.Firing.Rate [3, 5]: 1 | hitc Mean.Spheroid.Firing.Rate [3, 5]: 1 | hitc Mean.Spheroid.IBI [3, 5]: 1 | hitc Mean.Spheroid.Nonburst.ISI [3, 5]: 1 | hitc Mean.Spheroid.Spikes.per.Burst [3, 5]: 1 | hitc Mean.Spheroid.Spikes.per.Burst.per.Electrode [3, 5]: 1 | hitc Spheroid.Burst.Frequency [3, 5]: 1 | hitc Spheroid.Spike.Amplitude.90th.Percentile [3, 5]: 1 | pEC50 ([3]; Homo sapiens, 5th percentile across active AC50 values per chemical, read-out: Minimum potency): 6.00 | EC (benchmark response 1.349 SD) ([3]; Homo sapiens, tcplfit2 BMD at benchmark response (1.349*SD of baseline controls), read-out: BMD Mean.Spheroid.Burst.ISI): 7.6 µM | EC (benchmark response 1.349 SD) ([3]; Homo sapiens, tcplfit2 BMD at benchmark response (1.349*SD of baseline controls), read-out: BMD Mean.Spheroid.Nonburst.ISI): 9.4 µM | AC50 ([3]; Homo sapiens, read-out: ac50 Mean.Spheroid.Burst.Duration): 3.3 µM | AC50 ([3]; Homo sapiens, read-out: ac50 Mean.Spheroid.Burst.ISI): 8.4 µM | AC50 ([3]; Homo sapiens, read-out: ac50 Mean.Spheroid.Burst.Peak.Firing.Rate): 3.8 µM | AC50 ([3]; Homo sapiens, read-out: ac50 Mean.Spheroid.Firing.Rate): 3.5 µM | AC50 ([3]; Homo sapiens, read-out: ac50 Mean.Spheroid.IBI): 10 µM | AC50 ([3]; Homo sapiens, read-out: ac50 Mean.Spheroid.Nonburst.ISI): 9.8 µM | AC50 ([3]; Homo sapiens, read-out: ac50 Mean.Spheroid.Spikes.per.Burst): 1.9 µM | AC50 ([3]; Homo sapiens, read-out: ac50 Mean.Spheroid.Spikes.per.Burst.per.Electrode): 1.4 µM | AC50 ([3]; Homo sapiens, read-out: ac50 Spheroid.Burst.Frequency): 5.9 µM | AC50 ([3]; Homo sapiens, read-out: ac50 Spheroid.Spike.Amplitude.90th.Percentile): 4 µM | pEC50 ([3]; Homo sapiens, mean across active AC50 values per chemical, read-out: Mean potency): 5.35 | AC50 ([3]; read-out: ac50 Mean.Spheroid.Burst.Duration): 3.31 µM | AC50 ([3]; read-out: ac50 Mean.Spheroid.Burst.ISI): 8.39 µM | AC50 ([3]; read-out: ac50 Mean.Spheroid.Burst.Peak.Firing.Rate): 3.77 µM | AC50 ([3]; read-out: ac50 Mean.Spheroid.Firing.Rate): 3.49 µM | AC50 ([3]; read-out: ac50 Mean.Spheroid.IBI): 10.4 µM | AC50 ([3]; read-out: ac50 Mean.Spheroid.Nonburst.ISI): 9.81 µM | AC50 ([3]; read-out: ac50 Mean.Spheroid.Spikes.per.Burst): 1.85 µM | AC50 ([3]; read-out: ac50 Mean.Spheroid.Spikes.per.Burst.per.Electrode): 1.4 µM | AC50 ([3]; read-out: ac50 Spheroid.Burst.Frequency): 5.88 µM | AC50 ([3]; read-out: ac50 Spheroid.Spike.Amplitude.90th.Percentile): 3.97 µM | pEC50 ([3]; mean across active AC50 values per chemical, read-out: Mean potency): 5.28 | Percent active ([3]; metrics active out of the total number of metrics screened): 100% | BMD Mean.Spheroid.Burst.Duration [3, 6]: 1.9 µM | BMD Mean.Spheroid.Burst.Peak.Firing.Rate [3, 6]: 2.4 µM | BMD Mean.Spheroid.Firing.Rate [3, 6]: 3.6 µM | BMD Mean.Spheroid.IBI [3, 6]: 9.6 µM | BMD Mean.Spheroid.Spikes.per.Burst [3, 6]: 1.2 µM | BMD Mean.Spheroid.Spikes.per.Burst.per.Electrode [3, 6]: 0.69 µM | BMD Spheroid.Burst.Frequency [3, 6]: 6 µM | BMD Spheroid.Spike.Amplitude.90th.Percentile [3, 6]: 1.6 µM | ACC Mean.Spheroid.Burst.Duration [3, 7]: 1.7 µM | ACC Mean.Spheroid.Burst.ISI [3, 7]: 7 µM | ACC Mean.Spheroid.Burst.Peak.Firing.Rate [3, 7]: 2.2 µM | ACC Mean.Spheroid.Firing.Rate [3, 7]: 5.2 µM | ACC Mean.Spheroid.IBI [3, 7]: 10 µM | ACC Mean.Spheroid.Nonburst.ISI [3, 7]: 9.6 µM | ACC Mean.Spheroid.Spikes.per.Burst [3, 7]: 2 µM | ACC Mean.Spheroid.Spikes.per.Burst.per.Electrode [3, 7]: 0.92 µM | ACC Spheroid.Burst.Frequency [3, 7]: 5.1 µM | ACC Spheroid.Spike.Amplitude.90th.Percentile [3, 7]: 2.2 µM | Hits ([3]; total number of active endpoints out of 10 MEA activity metrics, 13-day exposure): 10 | pEC50 ([4]; read-out: Mean potency in the hNNF): 5.45 | pEC50 ([4]; read-out: Minimum potency in the hNNF): 5.56
